The target in one data set is T1, SARS-CoV-2 Mpro (Severe acute respiratory syndrome coronavirus 2, UniProt P0DTD1).
T1 construct: purchased BPS Bioscience
Description: SARS-CoV-2 Mpro inhibition assay (BPS Bioscience, FRET peptide). The format is biochemical.

Data set [1] has as its system SARS-CoV-2 isolate EGY/WAT-2 VACCERA. As to the kind of experiment: microbe, parasite or virus in culture. It counts as cell-based. The following applies: for inhibition at 10 µM: Severe acute respiratory syndrome coronavirus 2, Vero C1008, 10 uM; for (API) Antiviral potency index: ratio of the inhibition % of the tested compound to that of Remdesivir at 10 μM, 1 = identical effect.

The subject of another data set is COVID-19. On the set-up: method as in PMID 34914868. The following applies: adult patients with mild-to-moderate COVID-19, not hospitalized, phase-3; cited from earlier work.
Another data set deals with Vero E6 cells. As to the kind of experiment: Cytotoxicity evaluation using MTT viability assay. Conditions: Vero E6 cytotoxicity IC50 compared with the antiviral activity maximum concentration (10 mM printed in footnote, 10 uM in text).
In data set [2] the test system is SARS-CoV-2. Details: method as in PMID 34750163. Conditions: ritonavir and Nirmatrelvir used in conjunction; cited from earlier work.
Data set [3] has as its system SARS-CoV-2. On the set-up: method as in PMID 36986562. Conditions: 10 µM, Vero 6 cells; cited from earlier work.
Another data set concerns main protease Mpro. On the set-up: method as in PMID 36986562. The following applies: read-out: IC50 of main protease Mpro inhibition; cited from earlier work.
Setting [4] is: in vitro enzyme assay, read-out: IC50 against SARS-CoV-2 Mpro.
Setting [5] is: Severe acute respiratory syndrome coronavirus 2, Vero C1008, 1 uM, infected Vero E6 cells, read-out: % of inhibition of SARS CoV-2.

Read-outs that look alike come from different tables or passages of the source.

As to `O=C(Cn1cc(COc2ccc(/C=N/N3C(=O)c4ccccc4C3=O)cc2)nn1)Nc1ccc(C(=O)O)cc1` [Compound 6a, (E)-4–(2-(4-((4-(((1,3-dioxoisoindolin-2-yl)imino)methyl)phenoxy)methyl)-1H-1,2,3-triazol-1-yl)acetamido)benzoic acid], the melting point (as a rule, the temperature, or range, at which the solid turns liquid) was in the range of 264 to 265 °C. Besides, the half-inhibitory concentration (IC50) (commonly the concentration at which inhibition is half-maximal) on SARS-CoV-2 Mpro (setting [4]) amounted to 113 ± 5.75 µM. In addition, in data set [1] (10 uM, infected Vero E6 cells), the “% of inhibition of SARS CoV-2” value was 94.96%. The inhibition (as a rule, how much of the control response was suppressed) at 0.01 µM in data set [1] (Severe acute respiratory syndrome coronavirus 2, Vero C1008, 0.01 uM) is approximately 40%. Besides, in data set [1] (setting [5]), the inhibition at 1 µM was determined as 87.8%. Further, at 10 µM the inhibition in data set [1] (infected Vero E6 cells) was 94%. The EC50 (as a rule, the concentration that produces a half-maximal response) in data set [1] (Severe acute respiratory syndrome coronavirus 2, Vero C1008, dose-response at five concentrations starting from 10 uM, read-out: EC50 of virus inhibition) amounted to 0.038 µM. For the same compound, the “(API) Antiviral potency index” value in data set [1] is reported as 0.98.
Turning to `CC(=O)OC[C@@H]1O[C@H](n2cc(COc3ccc(/C=N/N4C(=O)c5ccccc5C4=O)cc3)nn2)[C@@H](OC(C)=O)[C@H](OC(C)=O)[C@@H]1OC(C)=O` [Compound 10b, (2S,3R,4R,5S,6S)-2-(acetoxymethyl)-6–(4-((4-((E)-((1,3-dioxoisoindolin-2-yl)imino)methyl)phenoxy)methyl)-1H-1,2,3-triazol-1-yl)tetrahydro-2H-pyran-3,4,5-triyl triacetate], the “(API) Antiviral potency index” value in data set [1] turned out to be 0.90.
Consider `CC(C)C(=O)OC[C@H]1O[C@@H](n2ccc(NO)nc2=O)[C@H](O)[C@@H]1O` [Moldupiravir], for which the “reduction of the risk of death or hospitalisation” value in the data set on COVID-19 was 30%.
Consider `O=C(Cn1cc(COc2ccc(/C=N/N3C(=O)c4ccccc4C3=O)cc2)nn1)NCc1ccc(F)cc1` [Compound 6g, (E)-2–(4-((4-(((1,3-dioxoisoindolin-2-yl)imino)methyl)phenoxy)methyl)-1H-1,2,3-triazol-1-yl)-N-(4-fluorobenzyl) acetamide], for which, on SARS-CoV-2 Mpro (setting [4]), the IC50 turned out to be 90.1 ± 4.59 µM. The same compound came in with an inhibition at 10 µM in data set [1] (infected Vero E6 cells) of 94%. Further, the “(API) Antiviral potency index” value in data set [1] amounted to 0.97.
“(E)-2-((4-((1–(4-nitrophenyl)-1H-1,2,3-triazol-4-yl)methoxy)benzylidene)amino)isoindoline-1,3-dione [Compound 8c]”: in the data set on Vero E6 cells, the “CT/A Cytotoxicity/activity parameter” value was 8.62. Also, in data set [1], the “(API) Antiviral potency index” value is given as 0.96.
With `CCC(CC)COC(=O)[C@H](C)N[P@](=O)(OC[C@H]1O[C@@](C#N)(c2ccc3c(N)ncnn23)[C@H](O)[C@@H]1O)Oc1ccccc1` [Remdesivir, reference compound], the “CT/A Cytotoxicity/activity parameter” value in the data set on Vero E6 cells was determined as 4.31. The inhibition at 1 µM in data set [1] (Severe acute respiratory syndrome coronavirus 2, Vero C1008, read-out: % of inhibition of SARS CoV-2) was 92.7%. For the same compound, the 50% effective concentration (EC50) in data set [1] (Severe acute respiratory syndrome coronavirus 2, Vero C1008, read-out: EC50 of virus inhibition) came out at 0.029 µM.
In the case of `CC(C)(C)[C@H](NC(=O)C(F)(F)F)C(=O)N1C[C@H]2[C@@H]([C@H]1C(=O)N[C@H](C#N)C[C@@H]1CCNC1=O)C2(C)C` [Nirmatrelvir], the “decrease in hospitalisation or mortality” value in the data set on SARS-CoV-2 [2] was 89%.
As to `O=C1c2ccccc2C(=O)N1/N=C/c1ccc(OCc2cn(-c3ccccc3F)nn2)cc1` [Compound 8e, (E)-2-((4-((1–(2-fluorophenyl)-1H-1,2,3-triazol-4-yl)methoxy)benzylidene)amino)isoindoline-1,3-dione], the melting point was 248 to 249 °C. Moreover, the inhibition at 1 µM in data set [1] (setting [5]) came out at 83.6%. Also, in data set [1], the “(API) Antiviral potency index” value turned out to be 0.98.
In the case of `O=C1c2ccccc2C(=O)N1/N=C/c1ccc(OCc2cn(-c3ccc(F)cc3)nn2)cc1` [Compound 8a, (E)-2-((4-((1–(4-fluorophenyl)-1H-1,2,3-triazol-4-yl)methoxy)benzylidene)amino) isoindoline-1,3-dione], the melting point is 238 to 239 °C. Moreover, the “(API) Antiviral potency index” value in data set [1] turned out to be 0.96.
For the compound `O=C(Cn1cc(COc2ccc(/C=N/N3C(=O)c4ccccc4C3=O)cc2)nn1)Nc1ccccc1I` [Compound 6b, (E)-2–(4-((4-(((1,3-dioxoisoindolin-2-yl)imino)methyl)phenoxy)methyl)-1H-1,2,3-triazol-1-yl)-N-(2-iodophenyl) acetamide], the melting point lay within 213 to 214 °C. Moreover, the “(API) Antiviral potency index” value in data set [1] was determined as 0.97.
Compound `Cc1cccc(C)c1OCC(=O)N[C@@H](Cc1ccccc1)[C@@H](O)C[C@H](Cc1ccccc1)NC(=O)[C@H](C(C)C)N1CCCNC1=O` [Lopinavir, reference compound] displayed an IC50 against SARS-CoV-2 Mpro of 149 ± 7.48 µM.
`Cc1ccc(CNC(=O)Cn2cc(COc3ccc(/C=N/N4C(=O)c5ccccc5C4=O)cc3)nn2)cc1` [Compound 6f, (E)-2–(4-((4-(((1,3-dioxoisoindolin-2-yl)imino)methyl)phenoxy)methyl)-1H-1,2,3-triazol-1-yl)-N-(4-methylbenzyl) acetamide] came in with a melting point of 201 to 202 °C. Besides, the “(API) Antiviral potency index” value in data set [1] is on record as 0.92.
Compound `CC(=O)OC[C@@H]1O[C@H](n2cc(COc3ccc(/C=N/N4C(=O)c5ccccc5C4=O)cc3)nn2)[C@@H](OC(C)=O)[C@H](OC(C)=O)[C@H]1OC(C)=O` [Compound 10a, (2S,3S,4R,5S,6S)-2-(acetoxymethyl)-6–(4-((4-((E)-((1,3-dioxoisoindolin-2-yl)imino)methyl)phenoxy)methyl)-1H-1,2,3-triazol-1-yl)tetrahydro-2H-pyran-3,4,5-triyl triacetate] gave a melting point of 166 to 167 °C. At SARS-CoV-2 Mpro (setting [4]), the IC50 was 1090 ± 55.5 µM. In addition, in data set [1], the “(API) Antiviral potency index” value is given as 0.92.
Turning to `CCOC(=O)c1ccc(-n2cc(COc3ccc(/C=N/N4C(=O)c5ccccc5C4=O)cc3)nn2)cc1` [Compound 8f, ethyl (E)-4–(4-((4-(((1,3-dioxoisoindolin-2-yl)imino)methyl)phenoxy)methyl)-1H-1,2,3-triazol-1-yl)benzoate], the melting point was 224 to 225 °C. The “(API) Antiviral potency index” value in data set [1] is given as 0.91.
For the compound `O=C(Cn1cc(COc2ccc(/C=N/N3C(=O)c4ccccc4C3=O)cc2)nn1)NCc1ccc(Cl)cc1` [Compound 6h, (E)-N-(4-chlorobenzyl)-2–(4-((4-(((1,3-dioxoisoindolin-2-yl)imino)methyl)phenoxy)methyl)-1H-1,2,3-triazol-1-yl)acetamide], the melting point fell in the range of 208 to 209 °C. Besides, the “(API) Antiviral potency index” value in data set [1] was 0.95.
In turn, `O=C(Cn1cc(COc2ccc(/C=N/N3C(=O)c4ccccc4C3=O)cc2)nn1)Nc1ccc(F)cc1` [Compound 6e, (E)-2–(4-((4-(((1,3-dioxoisoindolin-2-yl)imino)methyl)phenoxy)methyl)-1H-1,2,3-triazol-1-yl)-N-(4-fluorophenyl) acetamide] had a melting point of 219 to 220 °C. Further, the “(API) Antiviral potency index” value in data set [1] worked out at 0.96.
The compound `CC(=O)c1ccc(-n2cc(COc3ccc(/C=N/N4C(=O)c5ccccc5C4=O)cc3)nn2)cc1` [Compound 8h, (E)-2-((4-((1–(4-acetylphenyl)-1H-1,2,3-triazol-4-yl)methoxy)benzylidene)amino)isoindoline-1,3-dione] registered a melting point of 275 to 276 °C. Moreover, the “(API) Antiviral potency index” value in data set [1] is 0.96.
On to `O=C1c2ccccc2C(=O)N1/N=C/c1ccc(OCc2cn(-c3ccc(Cl)c(Cl)c3)nn2)cc1` [Compound 8g, (E)-2-((4-((1–(3,4-dichlorophenyl)-1H-1,2,3-triazol-4-yl)methoxy)benzylidene)amino)isoindoline-1,3-dione], for which the “(API) Antiviral potency index” value in data set [1] turned out to be 0.96.
Consider `O=C(O)c1ccc(-n2cc(COc3ccc(/C=N/N4C(=O)c5ccccc5C4=O)cc3)nn2)cc1` [Compound 8b, (E)-4–(4-((4-(((1,3-dioxoisoindolin-2-yl)imino)methyl)phenoxy)methyl)-1H-1,2,3-triazol-1-yl)benzoic acid], for which the melting point was 287 to 288 °C. Besides, in data set [1], the “(API) Antiviral potency index” value came out at 0.91.
Turning to “(E)-2-((4-((1–(3-fluoro-4-methylphenyl)-1H-1,2,3-triazol-4-yl)methoxy)benzylidene)amino) Isoindoline-1,3-dione [Compound 8d]”, the “(API) Antiviral potency index” value in data set [1] turned out to be 0.92.
Turning to `CC1=NN(c2ccc(Cl)cc2)C(=O)/C1=C\c1ccc(OCc2cn(CC(=O)Nc3ccc(C(=O)O)cc3)nn2)cc1` [Compound 11], in the data set on SARS-CoV-2 [3], the “inhibition of SARS-CoV-2 growth” value was 63.39 ± 0.48%. For the same compound, the IC50 in the data set on main protease Mpro was 3.16 ± 1.2 µM.
`O=C(Cn1cc(COc2ccc(/C=N/N3C(=O)c4ccccc4C3=O)cc2)nn1)Nc1ccc(I)cc1F` [Compound 6c, (E)-2–(4-((4-(((1,3-dioxoisoindolin-2-yl)imino)methyl)phenoxy)methyl)-1H-1,2,3-triazol-1-yl)-N-(2-fluoro-4-iodophenyl)acetamide] registered a melting point of 228 to 229 °C. Further, in data set [1], the “(API) Antiviral potency index” value is 0.96.
On to `O=C(Cn1cc(COc2ccc(/C=N/N3C(=O)c4ccccc4C3=O)cc2)nn1)Nc1ccc([N+](=O)[O-])cc1` [Compound 6d, (E)-2–(4-((4-(((1,3-dioxoisoindolin-2-yl)imino)methyl)phenoxy)methyl)-1H-1,2,3-triazol-1-yl)-N-(4-nitrophenyl)acetamide], for which the melting point lay in the range of 242 to 243 °C. Besides, the “(API) Antiviral potency index” value in data set [1] stood at 0.98.

Source of the values: PMC11164105, “Exploring of N-phthalimide-linked 1,2,3-triazole analogues with promising -anti-SARS-CoV-2 activity: synthesis, biological screening, and molecular modelling studies” (Journal of Enzyme Inhibition and Medicinal Chemistry, 2024).
